{"source": "patent US20100137292A1", "about": "“Pharmaceutical formulations of meloxicam” (SANOVEL ILAC SANAYI VE TICARET A.S., priority 2008, published 2010)", "origin": "cited, not measured here", "data": [{"compound": "Cc1cnc(NC(=O)C2=C(O)c3ccccc3S(=O)(=O)N2C)s1", "note": "[Meloxicam, 4-hydroxy-2-methyl-N-(5-methyl-2-thiazolyl)-2H-1,2-benzothiazine-3-carboxamide-1,1-dioxide]", "values": [{"measurement": "Solubility in alcohol", "setting": "alcohol", "value": "very slightly soluble"}, {"measurement": "Solubility in water", "setting": "water", "value": "practically insoluble"}]}]}
